From article PMC12117998, “First Steps toward the Design of Peptides that Influence the Intracellular Palmitoylation Machinery” (Chembiochem, 2025)
No end group written: not given here.

Tests used:
human 6His‐ZDHHC7 = target: T1, human 6His‐ZDHHC7 (Homo sapiens, UniProt Q9NXF8); experiment: In vitro palmitoylation assay (LC‐MS); assay type: biochemical; details: 50 μM CF‐labeled peptide, 37 °C, LC‐MS (Figure 4)
T1 construct: 6His; purchased Proteintech
T1 sequence (Q9NXF8 1-308): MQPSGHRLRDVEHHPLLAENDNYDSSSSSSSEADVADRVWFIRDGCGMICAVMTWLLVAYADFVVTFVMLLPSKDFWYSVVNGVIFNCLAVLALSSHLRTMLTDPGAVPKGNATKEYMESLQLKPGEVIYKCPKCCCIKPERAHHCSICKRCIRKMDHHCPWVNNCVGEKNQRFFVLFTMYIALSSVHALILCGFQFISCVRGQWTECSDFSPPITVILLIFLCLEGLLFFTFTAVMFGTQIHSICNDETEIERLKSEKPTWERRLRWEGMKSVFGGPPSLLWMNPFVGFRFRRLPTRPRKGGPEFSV
Description: The 50 μM CF‐labeled peptides were incubated with 100 nM human 6His‐ZDHHC7 (Proteintech) and 100 μM palmitoyl‐CoA (Santa Cruz Biotechnology) in reaction buffer (50 mM HEPES, 150 mM NaCl, 1 mM EDTA, 1 mM (tris(2‐carboxyethyl)phosphine) (TCEP), 0.3 mM DDM, pH 7.0) for 2 h at 37 °C. Control reactions without ZDHHC7 or palm‐CoA were incubated with the appropriate volume of reaction buffer. Afterward, the reaction was centrifuged for 5 min at 13000 rpm. The precipitate was dissolved in DMSO/ACN (3:2, v/v). To enrich the peptide from the supernatant, C8 ZipTips were used. All samples were analyzed on the LC MS‐8060 triple quadrupole ESI‐MS (Shimadzu). The fluorescence intensity (λex = 493 nm, λem = 517 nm) of the samples was measured on an EC 160/2 NUCLEODUR 300‐5 C18 ec column using linear gradients from 20% to 70 % ACN in ddH2O + 0.1% FA over 7 min.

HFF‐1 cells [1] = experiment: Cell viability assay (resazurin); assay type: cell-based, human; details: HFF‐1, 24 h, CF‐labeled peptides, n = 3 (Figure 3C)
Description: (§1) HeLa (13,000), MDA‐MB‐231 (26,000), HFF‐1 (16,000) cells, mEGFP‐HRas (18,000), and SW480 and SW620 (15,000) were seeded into a 96‐well plate. Cells were treated with suitable peptide concentrations diluted in the corresponding serum‐free culture medium. After 24 h incubation under standard growth conditions, the cells were washed once with PBS. The positive control was treated for 10 min with 70% EtOH. To test the viability, cells were treated with a resazurin solution (In Vitro Toxicology Assay Kit, resazurin based, Sigma) and incubated for a further 1–2 h. The product resorufin was measured at 595 nm (λex = 550 nm) on an infinite M200 plate reader (Tecan) and normalized to the untreated negative control cells.

MDA‐MB‐231 [2] = experiment: Cellular uptake by flow cytometry; assay type: cell-based; details: MDA‐MB‐231, 30 min, 5 μM CF‐labeled peptides, serum-free medium, 37 °C, n ≥ 3 (Figure 3E)
Description: (§2) HeLa (90,000), MDA‐MB‐231 (120,000), and HFF‐1 (125,000) cells were seeded into a 24‐well plate. Cells were treated with the desired concentration of CF‐labeled peptide diluted in the appropriate serum‐free medium for 30 min at 37 °C and 5% CO2. Afterward, cells were washed once with PBS, detached from the plate using indicator‐free trypsin/EDTA and resuspended in indicator‐free culture medium. The cell mixture was measured on the Guava easyCyte flow cytometer (Merck) using the GRN‐B (520/30) detector.

HFF‐1 cells [3] = experiment: Cellular uptake by flow cytometry; assay type: cell-based, human; details: HFF‐1, 30 min, 5 μM CF‐labeled peptides, serum-free medium, 37 °C, n ≥ 3 (Figure 3F)
Description: as §2

MCF‐10 A breast spheroid = experiment: Confocal time‐lapse imaging of spheroids; assay type: cell-based, human; details: 10‐day‐old MCF‐10 A spheroids, 10 μM CF‐labeled peptide, imaged every 45 s for 20 min, n ≥ 2 (Figure 7)
Description: Spheroids from single MCF10‐A cells were generated for 10 days as described in ref. [66]. For further analyses, spheroids were isolated from EHS matrix through incubation in 2 mL ice‐cold cell recovery solution (BD Biosciences) for 30 min (4 °C). Next, spheroids were washed with fresh EGF‐free medium and individually picked under a stereo microscope for seeding onto 35 mm cell culture dishes with microscopic glass bottoms (Cover Slip, 24 × 24 mm, #1.5 HP, Menzel‐Gläser). Spheroids adhered to glass substrates for 15 min (RT) and were subsequently covered with 0.9 mL fresh EGF‐free growth medium.
Live‐cell imaging was performed at 37 °C and 5% CO2 (cell incubator XL, Zeiss, Germany) with an inverse confocal laser scanning microscope (LSM880 with Airyscan detector) that used a 40x LD C‐Apochromat water immersion objective (NA 1.1, Zeiss). Before addition of peptides, control images were taken. Subsequently, peptide was added to a final concentration of 10 μM and spheroids immediately imaged every 45 s for 20 min. The observed plane was at the equatorial plane of a spheroid, where the diameter was largest. Images were taken with Fast Airyscan and subsequent processing using the ZEN 2.3 black software (Zeiss). Z‐stacks were taken right after the time series in 1 μm steps with the same microscopic settings.

HeLa mEGFP‐HRas cells = experiment: Cell viability assay (resazurin); assay type: cell-based; details: 24 h, n = 3 (Figure S11A)
Description: as §1

MDA‐MB‐231 [4] = experiment: Cell viability assay (resazurin); assay type: cell-based; details: MDA‐MB‐231, 24 h, CF‐labeled peptides, n = 3 (Figure 3B)
Description: as §1

HeLa cells = experiment: Cell viability assay (resazurin); assay type: cell-based; details: 24 h, CF‐labeled peptides, n = 3 (Figure 3A)
Description: as §1

GLRKRLRKFRNKKMDHHCPW-NH2 [DC‐2, CPP sC18* fused to the DHHC motif derived from ZDHHC2/3/6/7/15/16/20]
palmitoylation in presence of ZDHHC7 (human 6His‐ZDHHC7; 100 nM ZDHHC7, 100 μM palmitoyl‐CoA, pH 7.0, 2 h): palmitoylated
palmitoylation in absence of ZDHHC7 (auto‐palmitoylation) (human 6His‐ZDHHC7; 100 μM palmitoyl‐CoA, no ZDHHC7, pH 7.0, 2 h): auto‐palmitoylation
cytotoxicity (cell viability) (HFF‐1 cells [1]): most active peptide
cellular uptake (in words) (MDA‐MB‐231 [2]): internalized to a higher extent compared to DC‐4
cellular uptake (in words) (HFF‐1 cells [3]): internalized to a higher extent compared to DC‐4
infiltration of basement membrane (BM)‐covered spheroids (MCF‐10 A breast spheroid): efficiently surpassed the BM and translocated into many cells
cytotoxicity at 100 μM (HeLa mEGFP‐HRas cells): did not harm the cells
cytotoxicity (cell viability) (MDA‐MB‐231 [4]): most active peptide
cytotoxicity (cell viability) (HeLa cells): most active peptide
